Reference: patent US10799496B2, “Naphthylenyl compounds for long-acting injectable compositions and related methods” (priority 2018, dated 2020)

Legend:
[1] = Whole blood stability assay; format: in vitro ADME; settings: prodrug 50 nM, fresh pooled human whole blood, 37 degrees C.; read-out: t1/2 at 37 degrees C. in human whole blood
Experimental: Naltrexone prodrug stability was assessed using freshly collected whole blood (within 24-hr collection) from pooled human (n=3) donors. The incubation mixtures were prepared by spiking the prodrugs into pre-warmed (37 degrees C.) fresh whole blood to a final concentration of 50 nM. After gentle mixing, aliquots of incubation mixtures were immediately transferred into four different 96-deep well plates. One plate was used for each time point. The plates were incubated at 37 degrees C. at a shaking speed of 100 rpm. At time points 15, 30, 60 and 120 minutes, the reaction was quenched by addition of a mixture of water and acetonitrile containing the internal standard (naltrexone-D3). Time point 0 minutes was prepared separately by spiking the prodrugs into a quenched whole blood to obtain a final concentration of 50 nM. All samples were vortexed at a low speed for 15 min and centrifuged at 3900 rpm for 15 min. Supernatants were transferred into 96-well plates for LC-MS/MS analysis to monitor the depletion of the prodrugs and the formation of naltrexone.
The amount of remaining prodrug and released naltrexone for each sample was quantitated against the calibration curves prepared with the whole blood. The human whole blood was purchased from BioreclamationIVT (Westbury, N.Y., USA). Naltrexone-D3 was purchased from CERILLIANT® (Round Rock, Tex., USA). […] Where multiple runs have been completed, average values are reported.

[2] = Pharmacokinetic evaluation of the release of naltrexone from Compound 2 in rats following a single intramuscular injection; format: in vivo, Sprague-Dawley rats; settings: for Compound 2i conc.: rat plasma
Experimental: Five male Sprague-Dawley rats were allowed to acclimate to the test facility for at least 2 days prior to study start. For dose administration of Compound 2, the rats were lightly anesthetized with isofluorane, the hind leg shaved and dosed intramuscularly with the formulation using a 21G needle. […] Serial whole blood samples were collected via sublingual route (˜150 μL) at 1, 8, and 24 hours post dose, and at 2, 4, 7, 10, 14, 17, 21, 24, 28, 35, 42, 49, 56, 63, 71, 78, 85, and 91 days post dose.
Blood samples were placed into K2EDTA blood collection tubes. After collection, blood samples were maintained chilled (on wet ice) and centrifuged (11,500 rpm for 2 minutes at 5 degrees C.) within 30 minutes to obtain plasma. Plasma was transferred into a single vial, 1.5 mL screw cap micro-centrifuge tube with inserts and stored at −80 degrees C. until analysis.
The formulation dosed was a crystalline suspension of Compound 2 (46 milligrams of Compound 2 dosed per animal), wherein the crystalline test article was characterized with a particle size distribution of Dv10=12.9 μm, Dv50=31.5 μm, and Dv90=63.1 μm (as measured via laser diffraction). The formulation was prepared the day before dosing. Details of the formulation dosed are described in Table D below.
Results of the above intramuscular rat study of Compound 2 are shown in Tables E and F. In particular, Table E reports the average blood plasma levels of naltrexone in rat (n=5) over 91 days following intramuscular administration.

O=C(Oc1ccc2c3c1O[C@H]1C(=O)CC[C@@]4(O)[C@@H](C2)N(CC2CC2)CC[C@]314)c1ccc(C(=O)Oc2ccc3c4c2O[C@H]2C(=O)CC[C@@]5(O)[C@@H](C3)N(CC3CC3)CC[C@]425)cc1 [Reference Compound A, NTX-3-terephthaloyl-NTX, reference compound]
half-life at 50 nM [1]: 54.7 min

O=C(Cc1ccc2c(Cl)c(CC(=O)Oc3ccc4c5c3O[C@H]3C(=O)CC[C@@]6(O)[C@@H](C4)N(CC4CC4)CC[C@]536)ccc2c1Cl)Oc1ccc2c3c1O[C@H]1C(=O)CC[C@@]4(O)[C@@H](C2)N(CC2CC2)CC[C@]314 [Compound 6, bis((4R,4aS,7aR,12bS)-3-(cyclopropylmethyl)-4a-hydroxy-7-oxo-2,3,4,4a,5,6,7,7a-octahydro-1H-4,12-methanobenzofuro[3,2-e]isoquinolin-9-yl) 2,2′-(1,5-dichloronaphthalene-2,6-diyl)diacetate]
half-life at 50 nM [1]: 25.7 min

COc1c(CC(=O)Oc2ccc3c4c2O[C@H]2C(=O)CC[C@@]5(O)[C@@H](C3)N(CC3CC3)CC[C@]425)ccc2c(OC)c(CC(=O)Oc3ccc4c5c3O[C@H]3C(=O)CC[C@@]6(O)[C@@H](C4)N(CC4CC4)CC[C@]536)ccc12 [Compound 4, bis((4R,4aS,7aR,12bS)-3-(cyclopropylmethyl)-4a-hydroxy-7-oxo-2,3,4,4a,5,6,7,7a-octahydro-1H-4,12-methanobenzofuro[3,2-e]isoquinolin-9-yl) 2,2′-(1,5-dimethoxynaphthalene-2,6-diyl)diacetate]
half-life at 50 nM [1]: 28.9 min

O=C(CCc1ccc2cc(CCC(=O)Oc3ccc4c5c3O[C@H]3C(=O)CC[C@@]6(O)[C@@H](C4)N(CC4CC4)CC[C@]536)ccc2c1)Oc1ccc2c3c1O[C@H]1C(=O)CC[C@@]4(O)[C@@H](C2)N(CC2CC2)CC[C@]314 [Compound 8, bis((4R,4aS,7aR,12bS)-3-(cyclopropylmethyl)-4a-hydroxy-7-oxo-2,3,4,4a,5,6,7,7a-octahydro-1H-4,12-methanobenzofuro[3,2-e]isoquinolin-9-yl) 3,3′-(naphthalene-2,6-diyl)dipropionate]
half-life at 50 nM [1]: 26.3 min

O=C(O)Cc1ccc2cc(CC(=O)Oc3ccc4c5c3O[C@H]3C(=O)CC[C@@]6(O)[C@@H](C4)N(CC4CC4)CC[C@]536)ccc2c1 [Compound 2i, 2-(6-(2-(((4R,4aS,7aR,12bS)-3-(cyclopropylmethyl)-4a-hydroxy-7-oxo-2,3,4,4a,5,6,7,7a-octahydro-1H-4,12-methanobenzofuro[3,2-e]isoquinolin-9-yl)oxy)-2-oxoethyl)naphthalen-2-yl)acetic acid]
Compound 2i conc. ([2]; single i.m. dose of Compound 2, day 0.042 (1 hr), Rat 1): <0.2 ng/mL
Compound 2i conc. ([2]; single i.m. dose of Compound 2, day 0.042 (1 hr), Rat 2): <0.2 ng/mL
Compound 2i conc. ([2]; single i.m. dose of Compound 2, day 0.042 (1 hr), Rat 3): <0.2 ng/mL
Compound 2i conc. ([2]; single i.m. dose of Compound 2, day 0.042 (1 hr), Rat 4): <0.2 ng/mL
Compound 2i conc. ([2]; single i.m. dose of Compound 2, day 0.042 (1 hr), Rat 5): <0.2 ng/mL
Compound 2i conc. ([2]; single i.m. dose of Compound 2, day 0.33 (8 hr), Rat 1): <0.2 ng/mL
Compound 2i conc. ([2]; single i.m. dose of Compound 2, day 0.33 (8 hr), Rat 2): <0.2 ng/mL
Compound 2i conc. ([2]; single i.m. dose of Compound 2, day 0.33 (8 hr), Rat 3): <0.2 ng/mL
Compound 2i conc. ([2]; single i.m. dose of Compound 2, day 0.33 (8 hr), Rat 4): <0.2 ng/mL
Compound 2i conc. ([2]; single i.m. dose of Compound 2, day 0.33 (8 hr), Rat 5): <0.2 ng/mL
Compound 2i conc. ([2]; single i.m. dose of Compound 2, day 1, Rat 1): <0.2 ng/mL
Compound 2i conc. ([2]; single i.m. dose of Compound 2, day 1, Rat 2): <0.2 ng/mL
Compound 2i conc. ([2]; single i.m. dose of Compound 2, day 1, Rat 3): <0.2 ng/mL
Compound 2i conc. ([2]; single i.m. dose of Compound 2, day 1, Rat 4): <0.2 ng/mL
Compound 2i conc. ([2]; single i.m. dose of Compound 2, day 1, Rat 5): <0.2 ng/mL
Compound 2i conc. ([2]; single i.m. dose of Compound 2, day 2, Rat 1): <0.2 ng/mL
Compound 2i conc. ([2]; single i.m. dose of Compound 2, day 2, Rat 2): <0.2 ng/mL
Compound 2i conc. ([2]; single i.m. dose of Compound 2, day 2, Rat 3): <0.2 ng/mL
Compound 2i conc. ([2]; single i.m. dose of Compound 2, day 2, Rat 4): <0.2 ng/mL
Compound 2i conc. ([2]; single i.m. dose of Compound 2, day 2, Rat 5): <0.2 ng/mL
Compound 2i conc. ([2]; single i.m. dose of Compound 2, day 4, Rat 1): <0.2 ng/mL
Compound 2i conc. ([2]; single i.m. dose of Compound 2, day 4, Rat 2): <0.2 ng/mL
Compound 2i conc. ([2]; single i.m. dose of Compound 2, day 4, Rat 3): <0.2 ng/mL
Compound 2i conc. ([2]; single i.m. dose of Compound 2, day 4, Rat 4): <0.2 ng/mL
Compound 2i conc. ([2]; single i.m. dose of Compound 2, day 4, Rat 5): <0.2 ng/mL
Compound 2i conc. ([2]; single i.m. dose of Compound 2, day 7, Rat 1): <0.2 ng/mL
Compound 2i conc. ([2]; single i.m. dose of Compound 2, day 7, Rat 2): <0.2 ng/mL
Compound 2i conc. ([2]; single i.m. dose of Compound 2, day 7, Rat 3): <0.2 ng/mL
Compound 2i conc. ([2]; single i.m. dose of Compound 2, day 7, Rat 4): <0.2 ng/mL
Compound 2i conc. ([2]; single i.m. dose of Compound 2, day 7, Rat 5): <0.2 ng/mL
Compound 2i conc. ([2]; single i.m. dose of Compound 2, day 10, Rat 5): <0.2 ng/mL
Compound 2i conc. ([2]; single i.m. dose of Compound 2, day 49, Rat 1): <0.1 ng/mL
Compound 2i conc. ([2]; single i.m. dose of Compound 2, day 49, Rat 2): <0.1 ng/mL
Compound 2i conc. ([2]; single i.m. dose of Compound 2, day 49, Rat 3): <0.1 ng/mL
Compound 2i conc. ([2]; single i.m. dose of Compound 2, day 49, Rat 4): <0.1 ng/mL
Compound 2i conc. ([2]; single i.m. dose of Compound 2, day 56, Rat 1): <0.1 ng/mL
Compound 2i conc. ([2]; single i.m. dose of Compound 2, day 56, Rat 2): <0.1 ng/mL
Compound 2i conc. ([2]; single i.m. dose of Compound 2, day 56, Rat 3): <0.1 ng/mL
Compound 2i conc. ([2]; single i.m. dose of Compound 2, day 56, Rat 4): <0.1 ng/mL
Compound 2i conc. ([2]; single i.m. dose of Compound 2, day 56, Rat 5): <0.1 ng/mL
Compound 2i conc. ([2]; single i.m. dose of Compound 2, day 63, Rat 1): <0.1 ng/mL
Compound 2i conc. ([2]; single i.m. dose of Compound 2, day 63, Rat 2): <0.1 ng/mL
Compound 2i conc. ([2]; single i.m. dose of Compound 2, day 63, Rat 3): <0.1 ng/mL
Compound 2i conc. ([2]; single i.m. dose of Compound 2, day 63, Rat 4): <0.1 ng/mL
Compound 2i conc. ([2]; single i.m. dose of Compound 2, day 63, Rat 5): <0.1 ng/mL
Compound 2i conc. ([2]; single i.m. dose of Compound 2, day 71, Rat 1): <0.1 ng/mL
Compound 2i conc. ([2]; single i.m. dose of Compound 2, day 71, Rat 2): <0.1 ng/mL
Compound 2i conc. ([2]; single i.m. dose of Compound 2, day 71, Rat 3): <0.1 ng/mL
Compound 2i conc. ([2]; single i.m. dose of Compound 2, day 71, Rat 4): <0.1 ng/mL
Compound 2i conc. ([2]; single i.m. dose of Compound 2, day 71, Rat 5): <0.1 ng/mL
Compound 2i conc. ([2]; single i.m. dose of Compound 2, day 78, Rat 1): <0.1 ng/mL
Compound 2i conc. ([2]; single i.m. dose of Compound 2, day 78, Rat 2): <0.1 ng/mL
Compound 2i conc. ([2]; single i.m. dose of Compound 2, day 78, Rat 3): <0.1 ng/mL
Compound 2i conc. ([2]; single i.m. dose of Compound 2, day 78, Rat 4): <0.1 ng/mL
Compound 2i conc. ([2]; single i.m. dose of Compound 2, day 78, Rat 5): <0.1 ng/mL
Compound 2i conc. ([2]; single i.m. dose of Compound 2, day 85, Rat 1): <0.1 ng/mL
Compound 2i conc. ([2]; single i.m. dose of Compound 2, day 85, Rat 2): <0.1 ng/mL
Compound 2i conc. ([2]; single i.m. dose of Compound 2, day 85, Rat 3): <0.1 ng/mL
Compound 2i conc. ([2]; single i.m. dose of Compound 2, day 85, Rat 4): <0.1 ng/mL
Compound 2i conc. ([2]; single i.m. dose of Compound 2, day 85, Rat 5): <0.1 ng/mL
Compound 2i conc. ([2]; single i.m. dose of Compound 2, day 91, Rat 1): <0.1 ng/mL
Compound 2i conc. ([2]; single i.m. dose of Compound 2, day 91, Rat 2): <0.1 ng/mL
Compound 2i conc. ([2]; single i.m. dose of Compound 2, day 91, Rat 3): <0.1 ng/mL
Compound 2i conc. ([2]; single i.m. dose of Compound 2, day 91, Rat 4): <0.1 ng/mL
Compound 2i conc. ([2]; single i.m. dose of Compound 2, day 91, Rat 5): <0.1 ng/mL
plasma concentrations of parent Compound 2 and the resultant intermediate ([2]; rat, single i.m. dose of Compound 2, over 91 days): generally low to not measurable
